The text below walks through data of PubChem BioAssay AID1259407 (Chemical Carcinogenesis Research Information System (CCRIS), 2018).

This series has as its system CCRIS mutagenicity, Ames/micronucleus/aberration tests. The series is described as follows: CCRIS mutagenicity studies. As to conditions: Test System: AMES SALMONELLA TYPHIMURIUM
Where [1] appears, read: Strain/Indicator: TA98, Metabolic Activation: NONE, Method: PREINCUBATION
Where [2] appears, read: Strain/Indicator: TA98, Metabolic Activation: NONE, Method: STANDARD PLATE.
Where [3] appears, read: Strain/Indicator: TA98, Metabolic Activation: RAT, LIVER, S-9, AROCLOR 1254 (10%), Method: PREINCUBATION
The mark [4] stands for this setting: Strain/Indicator: TA98, Metabolic Activation: RAT, LIVER, S-9, AROCLOR 1254, Method: STANDARD PLATE.
The mark [5] stands for this setting: Strain/Indicator: TA100, Metabolic Activation: NONE, Method: PREINCUBATION
Setting [6] is: Strain/Indicator: TA100, Metabolic Activation: NONE, Method: STANDARD PLATE.
[7] abbreviates: Strain/Indicator: TA100, Metabolic Activation: RAT, LIVER, S-9, AROCLOR 1254 (10%), Method: PREINCUBATION
[8] abbreviates: Strain/Indicator: TA100, Metabolic Activation: RAT, LIVER, S-9, AROCLOR 1254, Method: STANDARD PLATE.
The mark [9] stands for this setting: Strain/Indicator: TA1535, Metabolic Activation: NONE, Method: STANDARD PLATE.
Setting [10] is: Strain/Indicator: TA1535, Metabolic Activation: RAT, LIVER, S-9, AROCLOR 1254, Method: STANDARD PLATE.
The mark [11] stands for this setting: Strain/Indicator: TA1537, Metabolic Activation: NONE, Method: STANDARD PLATE.
Where [12] appears, read: Strain/Indicator: TA1537, Metabolic Activation: RAT, LIVER, S-9, AROCLOR 1254, Method: STANDARD PLATE.
Where [13] appears, read: Strain/Indicator: TA98, Metabolic Activation: HAMSTER, LIVER, S-9, AROCLOR 1254 (30%), Method: PREINCUBATION
[14] abbreviates: Strain/Indicator: TA98, Metabolic Activation: RAT, LIVER, S-9, AROCLOR 1254 (30%), Method: PREINCUBATION
Setting [15] is: Strain/Indicator: TA100, Metabolic Activation: HAMSTER, LIVER, S-9, AROCLOR 1254 (30%), Method: PREINCUBATION
[16] abbreviates: Strain/Indicator: TA100, Metabolic Activation: RAT, LIVER, S-9, AROCLOR 1254 (30%), Method: PREINCUBATION

Active and inactive are the calls of the source. No rule for the calls is given here.

Take `C=C(C)C(=O)OCC`: the mutagenic call is, setting by setting: (Strain/Indicator: TA98, Metabolic Activation: HAMSTER, LIVER, S-9, AROCLOR 1254 (10%), Method: PREINCUBATION) “inactive; negative”; under setting [1], “inactive; negative”; under setting [2], “inactive; negative”; under setting [3], “inactive; negative”; under setting [4], “inactive; negative”; (Strain/Indicator: TA98, Metabolic Activation: RAT, LIVER, S-9, SODIUM PHENOBARBITAL, Method: STANDARD PLATE) “inactive; negative”. The mutagenic call (Strain/Indicator: TA100, Metabolic Activation: HAMSTER, LIVER, S-9, AROCLOR 1254 (10%), Method: PREINCUBATION) is “inactive; negative”; the mutagenic call under setting [5] is “inactive; negative”; the mutagenic call under setting [6] is “inactive; negative”; the mutagenic call under setting [7] was “inactive; negative”; the mutagenic call under setting [8] is “inactive; negative”; the mutagenic call (Strain/Indicator: TA100, Metabolic Activation: RAT, LIVER, S-9, SODIUM PHENOBARBITAL, Method: STANDARD PLATE) is “inactive; negative”. Also, the mutagenic call (Strain/Indicator: TA1535, Metabolic Activation: HAMSTER, LIVER, S-9, AROCLOR 1254 (10%), Method: PREINCUBATION) was “inactive; negative”; the mutagenic call (Strain/Indicator: TA1535, Metabolic Activation: NONE, Method: PREINCUBATION) was “inactive; negative”; the mutagenic call under setting [9] is “inactive; negative”; the mutagenic call (Strain/Indicator: TA1535, Metabolic Activation: RAT, LIVER, S-9, AROCLOR 1254 (10%), Method: PREINCUBATION) is “inactive; negative”; the mutagenic call under setting [10] was “inactive; negative”; the mutagenic call (Strain/Indicator: TA1535, Metabolic Activation: RAT, LIVER, S-9, SODIUM PHENOBARBITAL, Method: STANDARD PLATE) is “inactive; negative”. In addition, the mutagenic call was “inactive; negative” (Strain/Indicator: TA1537, Metabolic Activation: HAMSTER, LIVER, S-9, AROCLOR 1254 (10%), Method: PREINCUBATION); “inactive; negative” (Strain/Indicator: TA1537, Metabolic Activation: NONE, Method: PREINCUBATION); “inactive; negative” under setting [11]; “inactive; negative” (Strain/Indicator: TA1537, Metabolic Activation: RAT, LIVER, S-9, AROCLOR 1254 (10%), Method: PREINCUBATION); “inactive; negative” under setting [12]; “inactive; negative” (Strain/Indicator: TA1537, Metabolic Activation: RAT, LIVER, S-9, SODIUM PHENOBARBITAL, Method: STANDARD PLATE). Also, the mutagenic call was “inactive; negative” (Strain/Indicator: TA1538, Metabolic Activation: NONE, Method: STANDARD PLATE); “inactive; negative” (Strain/Indicator: TA1538, Metabolic Activation: RAT, LIVER, S-9, AROCLOR 1254, Method: STANDARD PLATE); “inactive; negative” (Strain/Indicator: TA1538, Metabolic Activation: RAT, LIVER, S-9, SODIUM PHENOBARBITAL, Method: STANDARD PLATE).
`O=C(CCl)Nc1snc2cc(Cl)ccc12`: the mutagenic call is “inactive; negative” under setting [2]; “active; positive” (Strain/Indicator: TA98, Metabolic Activation: S-9, Method: STANDARD PLATE); “active; positive” under setting [6]; “active; positive” (Strain/Indicator: TA100, Metabolic Activation: S-9, Method: STANDARD PLATE); “inactive; negative” under setting [9]; “inactive; negative” (Strain/Indicator: TA1535, Metabolic Activation: S-9, Method: STANDARD PLATE). The mutagenic call runs as follows: under setting [11], “active; positive”; (Strain/Indicator: TA1537, Metabolic Activation: S-9, Method: STANDARD PLATE) “active; positive”.
Regarding `O=[N+]([O-])c1c2ccccc2cc2ccccc12`, the mutagenic call was “active; positive” under setting [13]; “active; positive” under setting [1]; “active; positive” under setting [2]; “active; positive” under setting [3]; “active; positive” under setting [14]; “active; positive” (Strain/Indicator: TA98, Metabolic Activation: RAT, LIVER, S-9, Method: STANDARD PLATE). For the same compound, the mutagenic call is “active; positive” under setting [15]; “active; positive” under setting [5]; “inactive; negative” under setting [6]; “active; positive” under setting [7]; “active; positive” under setting [16]; “inactive; negative” (Strain/Indicator: TA100, Metabolic Activation: RAT, LIVER, S-9, Method: STANDARD PLATE).
For `Cn1cnc([N+](=O)[O-])c1Sc1ncnc2nc[nH]c12`, the mutagenic call under setting [13] was “inactive; negative”; the mutagenic call under setting [1] was “inactive; negative”; the mutagenic call under setting [14] is “inactive; negative”; the mutagenic call under setting [15] is “active; positive”; the mutagenic call under setting [5] was “active; positive”; the mutagenic call under setting [16] was “active; positive”.
For `CC1CCC(C(C)C)C(=O)C1` (stereo not drawn), the mutagenic call by setting is: (Strain/Indicator: TA97, Metabolic Activation: NONE, Method: STANDARD PLATE) “active; positive”; under setting [2], “inactive; negative”; under setting [4], “inactive; negative”; under setting [6], “inactive; negative”; under setting [8], “inactive; negative”; under setting [9], “inactive; negative”. Moreover, the mutagenic call under setting [10] is “inactive; negative”, the mutagenic call under setting [11] is “inactive; negative” and the mutagenic call under setting [12] is “inactive; negative”.
On to `Cc1c2cc(CO)ccc2nc2c1ccc1ccccc12`, for which the mutagenic call under setting [8] is “active; positive”.
